What all share (assay type): cell-based, human
The test system of one test is HHFDPC. The experiment in a line: MTT proliferation of dermal papilla cells. To be noted: peptide 500 nM, 5 μM, 50 μM, 72 hours, vs untreated control, FIG. 1. As to the method: While culturing human hair follicle dermal dermal papilla cells (HHFDPC), the absorbance was measured after treatment with the peptide of the present invention to confirm whether there was an effect of promoting the proliferation of the HHFDPC dermal papilla cells.
Specifically, HHFDPC (Sciencell, USA) was seeded at 4×10^3 cells/well in a 96-well culture plate, cultured in MSC complete medium (mesenchymal stem cell complete media, Sciencell, USA) for 24 hours, and then the medium was replaced with serum free MSC complete medium and cultured for another 24 hours. Then, the HHFDPC was treated with the peptide of SEQ ID NO: 1 prepared in the Preparation Example at concentrations of 500 nM, 5 µM, and 50 μM, respectively, and cultured at 37° C. for 72 hours. As a positive control, minoxidil was treated at a concentration of 1 μM, and as a negative control, HHFDPC without any treatment was used. Then, 10 ? of 5 mg/mL MTT solution was added and cultured in a 37° C. CO2 incubator for 4 hours to stain the cells. After removing the medium, the cells were treated with 100 μl of DMSO and shaken for 10 minutes, and the number of HHFDPC cells was confirmed by measuring absorbance at a wavelength of 540 nm using a spectrophotometer.

The subject of the next test is p-AKT. The experiment in a line: Western blotting of phosphorylated AKT in HHFDPC. To be noted: peptide 500 nM, 5 μM, 50 μM, 24 hours, vs control not treated with the peptide, FIG. 2. The method, then:
(§1) First, phosphorylated forms of AKT and ERK, which act as signaling molecules related to the proliferation of HHFDPC, were confirmed through Western blotting. Specifically, HHFDPC as in [Experiment Example 1-1] above was seeded at 4×10^5 cells/well in a 6-well culture plate, cultured in MSC complete medium (mesenchymal stem cell complete media) for 24 hours, and then the medium was replaced with serum free MSC complete medium and cultured for another 24 hours. Then, the HHFDPC was treated with the peptide of SEQ ID NO: 1 prepared in the Preparation Example at concentrations of 500 nM, 5 μM, and 50 µM, respectively, and cultured at 37° C. for 24 hours. As a positive control, minoxidil was treated at a concentration of 1 μM, and as a negative control, HHFDPC without any treatment was used. Then, Western blotting was performed to detect phosphorylated AKT and phosphorylated ERK. After washing with PBS, the cells were treated with 100 ? of lysis buffer to destroy cells, thereby obtaining cell lysate. After electrophoresis using a 10% SDS-PAGE gel, it was transferred to a PVDF membrane and blocked using 5% skim milk at room temperature for 30 minutes. […] After washing again with 0.1% PBS-T (0.1% Tween-20 in PBS) three times for 15 minutes each, p-AKT and p-ERK were detected by treatment with ECL solution (GE Healthcare, USA).

The next test relates to p-ERK. The experiment in a line: Western blotting of phosphorylated ERK in HHFDPC. The conditions noted are these: peptide 500 nM, 5 μM, 50 μM, 24 hours, vs control not treated with the peptide, FIG. 2. As to the method:
as §1

A further test has as its system β-catenin. Kind of test: Western blotting of β-catenin moved into the nucleus of HHFDPC. The conditions noted are these: HHFDPC nuclear protein, peptide 500 nM, 5 μM, 50 μM, 24 hours, vs control, FIG. 3. As to the method:
In addition, in addition to p-AKT and p-ERK, in order to confirm the activation of β-catenin, which is known to affect cell proliferation and differentiation, whether β-catenin moved into the nucleus was confirmed through Western blotting. Specifically, the HHFDPC as in [Experiment Example 1-1] was seeded in a 6-well culture plate at an amount of 4×10^5 cells/well, cultured in MSC complete medium (mesenchymal stem cell complete media) for 24 hours. Next, the medium was replaced with serum free MSC complete medium and cultured again for 24 hours. Then, the HHFDPC was treated with the peptide of SEQ ID NO: 1 prepared in the Preparation Example at concentrations of 500 nM, […], and 50 μM, respectively, and cultured at 37° C. for 24 hours. As a positive control, minoxidil was treated at a concentration of 1 μM, and as a negative control, HHFDPC without any treatment was used. After washing with PBS, proteins in the nucleus were isolated using a nuclear protein extraction kit (Thermo scientific, USA). After electrophoresis using a 10% SDS-PAGE gel, it was transferred to a PVDF membrane and blocked using 5% skim milk at room temperature for 30 minutes. […] After washing again with 0.1% PBS-T (0.1% Tween-20 in PBS) three times for 15 minutes each, β-catenin was detected by treatment with ECL solution (GE Healthcare, USA).
Background: In western blotting, separated proteins are transferred to a membrane and probed.

A further test relates to LEF-1. Kind of test: RT-PCR of LEF-1 in HHFDPC. To be noted: peptide 500 nM, 5 μM, 50 μM, 24 hours, vs control without treatment, FIG. 4. The method, then:
(§2) Furthermore, in order to determine whether the β-catenin moves to the nucleus and is activated to affect proliferation and differentiation, whether the expression of LEF-1, c-Myc and cyclin D1 (cyclin D1), which act as downstream factors, increases with β-catenin activation was confirmed through RT-PCR. Specifically, in the same manner as the previous Western blotting experiment, HHFDPC cells were cultured, treated with the peptides of the Preparation Example of the present invention at concentrations of 500 nM, 5 μM, and 50 μM, respectively, and cultured at 37° C. for 24 hours. After washing the cells with PBS, RNA was isolated by treating them with 300 […] of easy blue (intron, Korea). Then, CDNA was synthesized using a cDNA synthesis kit (enzynomics, Korea) by quantifying it with nano drop, and PCR was performed using primers for LEF-1, c-Myc and cyclin D1 (base sequences of the primers are listed in Table 2 below) and PCR premix (enzynomics, Korea). Electrophoresis was performed on a 1.5% agarose gel, and then the mRNA of LEF-1 and cyclin D1 was detected using a band analysis system (Bio-Rad gel image system).

In the next test the test system is c-Myc. Kind of test: RT-PCR of c-Myc in HHFDPC. To be noted: peptide 500 nM, 5 μM, 50 μM, 24 hours, vs control without treatment, FIG. 4. As to the method: as §2
Another test deals with cyclin D1. Kind of test: RT-PCR of cyclin D1 in HHFDPC. The conditions noted are these: peptide 500 nM, 5 μM, 50 μM, 24 hours, vs control without treatment, FIG. 4. The method, then: as §2
Another test has as its system DKK-1 protein. The experiment in a line: Western blotting of DKK-1 protein in DHT-treated HHFDPC. The conditions noted are these: HHFDPC with DHT 100 nM, peptide 500 nM, 5 μM, 50 μM, 24 hours, vs negative control (DHT only), FIG. 5. As to the method: DKK-1 protein (dickkopf-related protein 1) is a hair loss-related protein known to be highly expressed in individuals with hair loss, especially male pattern hair loss, and its expression is known to be promoted by hormones such as DHT (Dihydrotestosterone). Accordingly, the expression of DKK-1 protein was induced by treating HHFDPC cells with DHT together with the peptide according to the Preparation Example of the present invention, and then the expression level of DKK-1 was measured through Western blotting to determine whether there was an effect of suppressing the expression of DKK-1 protein.
Specifically, HHFDPC as in [Experiment Example 1-1] was seeded in a 6-well culture plate at 4×10^5 cells/well and then cultured in MSC complete medium (mesenchymal stem cell complete media) for 24 hours. Next, the medium was replaced with serum free MSC complete medium and cultured again for 24 hours. In addition, the HHFDPC was treated with the peptide of SEQ ID NO: 1 prepared in Preparation Example at concentrations of 500 nM, 5 μM, and 50 μM, respectively, and at this time, DHT, an expression inducer of DKK-1 protein, was simultaneously treated at a concentration of 100 nM and then cultured at 37° C. for 24 hours. […] After washing again with 0.1% PBS-T (0.1% Tween-20 in PBS) three times for 15 minutes each, DKK-1 protein was detected by treatment with ECL solution (GE Healthcare, USA).

A further test concerns Ha3-II. Kind of test: RT-PCR of Ha3-II in HHORSC. The conditions noted are these: peptide 500 nM, 5 μM, 50 μM, 72 hours, vs control without treatment, FIG. 6. The method, then: (§3) Specifically, HHORSC (human hair outer root sheath cell, Sciencell, USA) was seeded in a 6-well culture plate at 4×10^5 cells/well and then cultured in MSC complete medium (mesenchymal stem cell complete media) for 24 hours. Next, the medium was replaced with serum free MSC complete medium and cultured again for 24 hours. Then, the HHORSC was treated with the peptide of Preparation Example consisting of amino acid sequence of SEQ ID NO: 1 at concentrations of 500 nM, 5 μM, and 50 μM, respectively, and cultured at 37° C. for 72 hours. As a positive control, EGF was treated at a concentration of 50 nM, and as a negative control, HHORSC without any treatment was used. After washing with PBS, RNA was isolated by treating with 300 ? of easy blue (intron, Korea). Then, CDNA was synthesized using a cDNA synthesis kit (enzynomics, Korea) by quantification using nano drop, and PCR was performed using primer for Ha3-II, Keratin 14, and Keratin 19 (the base sequences of primer are listed in Table 3 below) and PCR premix (enzynomics, Korea). Electrophoresis was performed on a 1.5% agarose gel, and the mRNAs of Ha3-II, Keratin 14, and Keratin 19 were detected using a band analysis system (Bio-Rad gel image system).

Another test relates to Keratin 14. Kind of test: RT-PCR of Keratin 14 in HHORSC. To be noted: peptide 500 nM, 5 μM, 50 μM, 72 hours, vs control without treatment, FIG. 6. The method, then: as §3
The subject of another test is Keratin 19. Kind of test: RT-PCR of Keratin 19 in HHORSC. The conditions noted are these: peptide 500 nM, 5 μM, 50 μM, 72 hours, vs control without treatment, FIG. 6. The method, then:
as §3

The test system of a further test is MSX2. Kind of test: RT-PCR of MSX2 in HHGMC. To be noted: peptide 500 nM, 5 μM, 50 μM, 72 hours, vs untreated control, FIG. 7. As to the method: Specifically, HHGMC (human hair germinal matrix cell, Sciencell, USA) was seeded in a 6-well culture plate at 4×10^5 cells/well and then cultured in MSC complete medium (mesenchymal stem cell complete media) for 24 hours. Next, the medium was replaced with serum free MSC complete medium and cultured again for 24 hours. Then, the HHGMC was treated with the peptide of SEQ ID NO: 1 prepared in the Preparation Example at concentrations of 500 nM, 5 μM, and 50 µM, respectively, and cultured at 37° C. for 72 hours. As a positive control, EGF was treated at a concentration of 50 nM, and as a negative control, HHGMC without any treatment was used. After washing with PBS, RNA was isolated by treating with 300 ? of easy blue (intron, Korea). Next, cDNA was synthesized using a cDNA synthesis kit (enzynomics, Korea) by quantification using nano drop, and PCR was performed using primers for MSX2 (base sequences of primers are listed in Table 4 below) and PCR premix (enzynomics, Korea). Electrophoresis was performed on a 1.5% agarose gel, and MSX2 mRNA was detected using a band analysis system (Bio-Rad gel image system).

With “CPRHENPVC [the peptide of the present invention]”, in the test on HHFDPC, the “proliferation of HHFDPC (absorbance at 540 nm, MTT)” value is reported as “the proliferation of HHFDPC was promoted”. In addition, the p-AKT phosphorylation entry in the test on p-AKT is “phosphorylation was found to be increased”. Also, the p-ERK phosphorylation entry with p-ERK was “phosphorylation was found to be increased”. Further, in the test with β-catenin, the “β-catenin moved into the nucleus” value was “migration due to activation of β-catenin increased”. In the test with LEF-1, the “LEF-1 mRNA” value was “the amount of mRNA increased further”. In the test on c-Myc, the “c-Myc mRNA” value is on record as “the amount of mRNA increased further”. Besides, in the test with cyclin D1, the “cyclin D1 mRNA” value is given as “the amount of mRNA increased further”. Also, in the test with DKK-1 protein, the “amount of DKK-1 protein” value is given as “the amount of DKK-1 protein was found to be reduced”. Also, the “Ha3-II mRNA” value in the test with Ha3-II was “the amount of mRNA increased further”. The “Keratin 14 mRNA” value with Keratin 14 is recorded as “the amount of mRNA increased further”. The “Keratin 19 mRNA” value in the test on Keratin 19 was “the amount of mRNA increased further”. Further, the “MSX2 mRNA” value with MSX2 is on record as “the amount of mRNA increased further”.

(Values after US20240287133A1, “PEPTIDE HAVING ACTIVITY OF PREVENTING HAIR LOSS OR PROMOTING HAIR GROWTH, AND USE THEREOF” (CAREGEN CO., LTD., priority 2021, published 2024).)
